# According to publication PMC2757182 (The Journal of Biological Chemistry, 2009):
# Positions count from the first letter of the chain named.
# How the values were obtained:
# Assay in all cases: tryptophan fluorescence quenching
# Format in all cases: binding
# [1] = target: T1, GUN4 Δ1–69 (GENOMES UNCOUPLED 4) (Arabidopsis thaliana, UniProt Q9LX31, R211A)
# T1 sequence (Q9LX31 70-265 R211A): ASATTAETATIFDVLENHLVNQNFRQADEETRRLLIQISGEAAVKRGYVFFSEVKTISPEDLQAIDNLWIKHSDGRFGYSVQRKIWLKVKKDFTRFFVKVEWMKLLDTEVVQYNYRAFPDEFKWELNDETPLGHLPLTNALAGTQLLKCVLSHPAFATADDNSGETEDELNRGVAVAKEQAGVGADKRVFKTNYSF
# [2] = target: T2, GUN4 Δ1–69 (GENOMES UNCOUPLED 4) (Arabidopsis thaliana, UniProt Q9LX31, F191A)
# T2 sequence (Q9LX31 70-265 F191A): T1 sequence (Q9LX31 70-265 R211A) with F122A, A142R
# [3] = target: T3, GUN4 Δ1–69 (GENOMES UNCOUPLED 4) (Arabidopsis thaliana, UniProt Q9LX31, V123A)
# T3 sequence (Q9LX31 70-265 V123A): T1 sequence (Q9LX31 70-265 R211A) with V54A, A142R
# [4] = target: T4, GUN4 Δ1–69 (GENOMES UNCOUPLED 4) (Arabidopsis thaliana, UniProt Q9LX31)
# T4 sequence (Q9LX31 70-265): T1 sequence (Q9LX31 70-265 R211A) with A142R
Compound,Kd [1],Kd [2],Kd [3],Kd [4]
CC1=C(CCC(=O)O)c2cc3nc(cc4[nH]c(cc4C)cc4[nH]c(cc1n2)cc4C)C(C)=C3CCC(=O)O [DPIX],14 ± 0.83 µM,12 ± 0.77 µM,9.6 ± 0.44 µM,6.4 ± 0.21 µM
O=C(O)CCC1=C(CC(=O)O)c2cc3[nH]c(cc4nc(cc5[nH]c(cc1n2)c(CC(=O)O)c5CCC(=O)O)C(CCC(=O)O)=C4CC(=O)O)c(CC(=O)O)c3CCC(=O)O [Uroporphyrin III],,,,10 ± 0.57 µM
CC1=C(CCC(=O)O)c2cc3nc(cc4[nH]c(cc5[nH]c(cc1n2)c(C)c5CCC(=O)O)c(CCC(=O)O)c4C)C(CCC(=O)O)=C3C [Coproporphyrin III],,,,15 ± 0.82 µM
C=Cc1c(C)c2cc3nc(c4c5[nH]c(cc6nc(cc1[nH]2)C(C)=C6CC)c(C)c5C(=O)[C@@H]4C(=O)OC)[C@@H](CCC(=O)O)[C@@H]3C [Pheophorbide a],,,,3.8 ± 0.33 µM
C=CC1=C(C)C2=Cc3c(C=C)c(C)c4[n]3[Fe]([Cl])[n]3c(c(C)c(CCC(=O)O)c3=CC3=NC(=C4)C(C)=C3CCC(=O)O)=CC1=N2 [Hemin],,,,8.1 ± 0.75 µM
C=CC1=C(C)c2cc3[nH]c(cc4nc(cc5[nH]c(cc1n2)c(C)c5CCC(=O)O)C(CCC(=O)O)=C4C)c(C)c3C=C [PPIX],,,,11 ± 0.5 µM
